Experimental data: US6716829B2, “Aldosterone antagonist and cyclooxygenase-2 inhibitor combination therapy to prevent or treat inflammation-related cardiovascular disorders” (Pharmacia Corporation, priority 2000, dated 2004)

Assays:
[1] = test system: COX-2; assay: Assay B: COX-2 mRNA in heart by quantitative RT-PCR (Taqman); format: in vivo, Male Sprague Dawley rats
Method: Assay B: In Vivo Aldosterone Infusion Model Male Sprague Dawley rats (n=39; BW=250 g) 2. Aldosterone ([…], sc via alzet minipump) 2. […] Hearts were harvested and divided by half through a transverse section at the mid-ventricles: The upper half was stored into formalin. The bottom part was snap-frozen in liquid nitrogen for biochemical analysis. Determination of osteopontin and COX-2 was performed by quantitative RT-PCR (Taqman). Osteopontin was also identified in the heart by immunohistochemistry.

[2] = test system: angiotensin II infused rats; assay: Assay A: urinary electrolyte excretion (urinary Na+/K+ ratio as index for natriuresis); format: in vivo, Male Wistar rats; details: 1% NaCl, eplerenone 100 mpk
Source text: 24-hours food and fluid intake and urine output measured every day Urine samples collected every day for determination of urinary electrolytes. Electrolyte excretion. The ratio between daily urinary Na^+ excretion and urinary K^+ excretion (U Na^+/K^+ ratio) was used as an index for natriuresis. Urinary Na^+/K^+ ratio was similar in all groups before the start of the treatments, and increased similarly in all animals upon initiation of the high salt diet.

| Compound | COX-2 mRNA expression increase ([1]; aldosterone/salt + vehicle vs control) | COX-2 relative mRNA expression ([1]; hearts of aldosterone/salt-treated rats, quantitative RT-PCR, eplerenone 100 mpk) | Urinary Na+/K+ ratio (diuretic or natriuretic effect) [2] |
| --- | --- | --- | --- |
| C[C@]12CCC(=O)C=C1CC[C@@H]1[C@@H]2[C@@H](O)C[C@]2(C=O)[C@@H](C(=O)CO)CC[C@@H]12 [Aldosterone] | 3 fold | 3.7±0.46 |  |
| COC(=O)[C@@H]1CC2=CC(=O)CC[C@]2(C)[C@@]23O[C@@H]2C[C@@]2(C)[C@@H](CC[C@@]24CCC(=O)O4)[C@H]13 [Eplerenone] |  |  | did not produce a significant diuretic or natriuretic effect |
